Experiments:
[1] = molecular target: T1, human H-Ras polypeptide (amino acid residues 1 to 166) binding to human c-Raf-1 (amino acid residues 51 to 130) (Homo sapiens, UniProt P01112); experiment: Biochemical activity verification test: inhibition of Ras-Raf binding (GST-Raf pull-down of GTPγ[35S]-labeled Ras, scintillation counting); settings: compound at various concentrations in 10% DMSO; FIG. 4
T1 construct: a human H-Ras polypeptide (amino acid residues 1 to 166) was used as Ras; GST (N, cleaved yes); made in house; host or cells: Escherichia coli
Description: In this experimental example, a human H-Ras polypeptide (amino acid residues 1 to 166) was used as Ras, and a GTP analog (GTPγS (Roche Diagnostics)) was used as GTP. Further, human c-Raf-1 (amino acid residues 51 to 130) was used as Raf, a target protein of Ras.
A fused protein of Raf, a target protein of Ras, and glutathione S-transferase (GST) was expressed in Escherichia coli using a vector for GST-fused protein expression (pGEX-6P-1 vector (GE Healthcare)). The expressed GST-Raf-fused protein was immobilized onto an affinity carrier for purification (glutathione Sepharose 4B: resin (GE Healthcare)).
GTPγ[^35S] (Perkin Elmer), one of the GTP analogs, was added to Ras from which a GST tag was cleaved with a protease for GST-fused protein cleavage (PreScission protease (GE Healthcare)) to produce radiolabeled Ras.
The resin in the reaction liquid was washed, and then a complex of the GST-Raf-fused protein and the radiolabeled Ras was eluted by adding glutathione. A radioactivity of the eluate was subjected to scintillation counting, to thereby measure a binding activity of Ras to Raf, and inhibitory activities on Ras-Raf binding with various compounds were evaluated.

[2] = test system: culture cell lines having a mutation in an active form of any one of H-Ras, N-Ras, and K-Ras; experiment: Cytological activity verification test: anchorage-independent cell growth (soft agar colony formation); assay type: cell-based; settings: 0.6% agarose, 37° C., 2 weeks, colonies with diameter of 50 μm or more, relative to compound-free control (100%); FIG. 5
Procedure: The number of appeared colonies each having a size with a diameter of 50 μm or more was measured. For a medium in which each of the culture cell lines was suspended in a system free of each of the compounds, the number of colonies was similarly measured and used as a control (100%). Each of the compounds was evaluated for its inhibitory activity on colony formation (inhibitory activity on anchorage-independent cell growth) by calculating inhibition ratio for colony formation of the compound administration group relative to the control.

T1 sequence (P01112 1-166): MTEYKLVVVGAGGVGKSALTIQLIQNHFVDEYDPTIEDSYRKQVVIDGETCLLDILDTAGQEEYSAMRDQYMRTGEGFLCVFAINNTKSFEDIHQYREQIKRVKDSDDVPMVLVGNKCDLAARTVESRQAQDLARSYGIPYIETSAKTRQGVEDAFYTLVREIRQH

| SMILES | inhibitory activity on Ras-Raf binding [1] | inhibitory activity on colony formation (anchorage-independent cell growth) [2] |
| --- | --- | --- |
| O=[N+]([O-])c1ccc(NNC(=S)Nc2ccc(F)cc2)c([N+](=O)[O-])c1 [Compound (III)] | found to interact with Ras | found to have a colony formation inhibition effect on each cell |
| Cc1ccc(NC(=S)NNc2c([N+](=O)[O-])cc(C(F)(F)F)cc2[N+](=O)[O-])cc1Cl [Compound (II)] | found to interact with Ras | found to have a colony formation inhibition effect on each cell |
| O=[N+]([O-])c1cc(C(F)(F)F)cc([N+](=O)[O-])c1NNC(=S)Nc1ccc(F)cc1 [Compound (IV)] | found to interact with Ras | found to have a colony formation inhibition effect on each cell |

From US20140024123A1, “Aqueous Solution Containing Partial Ras Polypeptide and Method for Screening Inhibitor of Ras Function” (priority 2011, published 2014)
